# Assay results taken from patent publication US20240336566A1, “CRYSTALLINE FORMS OF A COMPOUND FOR THE TARGETED DEGRADATION OF THE ANDROGEN RECEPTOR” (Arvinas Operations, Inc., priority 2023, published 2024).
# Like-named read-outs stand apart in the source and are kept apart here.
# Test: Solvent solubility screen of Compound A (aliquot addition, HPLC of saturated solutions)
# Assay type: physicochemical
# Parameters: key to XRPD: A: Amorphous; P1: Pattern 1; P2: Pattern 2; *Poorly crystalline; + p1: some pattern 1 peaks
# Details: for XRPD: solid from solubility screen
# Description: A known volume aliquot (typically 5 volumes) of solvent was added to approximately 5 mg of Compound A. See Table 14 for the selected solvents for the solvent solubility screen.
# Between each addition, the mixture was checked for dissolution and where no dissolution was apparent, the mixture was heated to ca. 40° C. and checked again. This procedure was continued until dissolution was observed or until 100 volumes of solvent had been added.
# Where dissolution was not observed, solids were isolated centrifugally and analyzed by XRPD. The saturated solutions were analyzed by HPLC to obtain the solubility.
structure (smiles),measurement,setting,value
"COc1cc(O[C@H]2C(C)(C)[C@H](NC(=O)c3ccc(N4CCC(CN5CCN(c6ccc(C(=O)N[C@H]7CCC(=O)NC7=O)c(F)c6)CC5)CC4)cc3)C2(C)C)ccc1C#N [Compound A, 4-(4-((1-(4-(((1R,3R)-3-(4-cyano-3-methoxyphenoxy)-2,2,4,4-tetramethylcyclobutyl)carbamoyl)phenyl)piperidin-4-yl)methyl)piperazin-1-yl)-N—((S)-2,6-dioxopiperidin-3-yl)-2-fluorobenzamide]",solubility,"1,4-dioxane, organic solvent or mixture, thermodynamic from solid, 1,4-Dioxane, read-out: Approximate Solubility",100000 µg/mL
same,solubility,"1,4-dioxane, organic solvent or mixture, thermodynamic from solid, 1,4-Dioxane, read-out: Approximate solubility",~100000 µg/mL
same,solubility,"1,4-dioxane, organic solvent or mixture, thermodynamic from solid, 1,4-dioxane, read-out: solubility",> 100000 µg/mL
same,solubility,"1-butanol, 40 °C, organic solvent or mixture, thermodynamic from solid, 1-Butanol, read-out: Approximate Solubility",188 µg/mL
same,solubility,"1-propanol, 40 °C, organic solvent or mixture, thermodynamic from solid, 1-Propanol, read-out: Approximate Solubility",232 µg/mL
same,solubility,"2-Butanone (MEK), 40 °C, organic solvent or mixture, thermodynamic from solid, 2-Butanone (MEK), read-out: Approximate Solubility",2130 µg/mL
same,solubility,"2-Ethoxyethanol, 40 °C, organic solvent or mixture, thermodynamic from solid, 2-Ethoxyethanol, read-out: Approximate Solubility",1550 µg/mL
same,solubility,"2-Methyl THF, 40 °C, organic solvent or mixture, thermodynamic from solid, 2-Methyl THF, read-out: Approximate Solubility",2890 µg/mL
same,solubility,"2-Propanol, 40 °C, organic solvent or mixture, thermodynamic from solid, 2-Propanol, read-out: Approximate Solubility",205 µg/mL
same,solubility,"2-propanol:water (90:10% v/v), 40 °C, organic solvent or mixture, thermodynamic from solid, 2-Propanol:Water (90:10% v/v), read-out: Approximate Solubility",186 µg/mL
same,solubility,"3-Methyl-1-butanol, 40 °C, organic solvent or mixture, thermodynamic from solid, 3-Methyl-1-butanol, read-out: Approximate Solubility",1220 µg/mL
same,solubility,"Acetone, 40 °C, organic solvent or mixture, thermodynamic from solid, Acetone, read-out: Approximate Solubility",2730 µg/mL
same,solubility,"Acetonitrile, 40 °C, organic solvent or mixture, thermodynamic from solid, Acetonitrile, read-out: Approximate Solubility",995 µg/mL
same,solubility,"Anisole, organic solvent or mixture, thermodynamic from solid, Anisole, read-out: Approximate Solubility",25000 µg/mL
same,solubility,"Butyl acetate, 40 °C, organic solvent or mixture, thermodynamic from solid, Butyl acetate, read-out: Approximate Solubility",209 µg/mL
same,solubility,"DCM, organic solvent or mixture, thermodynamic from solid, DCM, read-out: Approximate solubility",~50000 µg/mL
same,solubility,"DCM, organic solvent or mixture, thermodynamic from solid, DCM, read-out: solubility",50000 to 100000 µg/mL
same,solubility,"DCM:methanol (50:50% v/v), organic solvent or mixture, thermodynamic from solid, DCM:methanol (50:50% v/v), read-out: solubility",50000 to 100000 µg/mL
same,solubility,"DCM:methanol (75:25% v/v), organic solvent or mixture, thermodynamic from solid, DCM:methanol (75:25% v/v), read-out: solubility",> 100000 µg/mL
same,solubility,"DMA, organic solvent or mixture, thermodynamic from solid, DMA, read-out: solubility",> 100000 µg/mL
same,solubility,"DMF, organic solvent or mixture, thermodynamic from solid, DMF, read-out: solubility",> 100000 µg/mL
same,solubility,"DMSO, organic solvent or mixture, thermodynamic from solid, DMSO, read-out: solubility",> 100000 µg/mL
same,solubility,"Dichloromethane, organic solvent or mixture, thermodynamic from solid, Dichloromethane, read-out: Approximate Solubility",50000 µg/mL
same,solubility,"N,N′-dimethylacetamide, organic solvent or mixture, thermodynamic from solid, N,N′-Dimethylacetamide, read-out: Approximate Solubility",100000 µg/mL
same,solubility,"N,N′-dimethylformamide, organic solvent or mixture, thermodynamic from solid, N,N′-Dimethylformamide, read-out: Approximate Solubility",100000 µg/mL
same,solubility,"N-methylpyrrolidone, organic solvent or mixture, thermodynamic from solid, N-Methylpyrrolidone, read-out: Approximate Solubility",50000 µg/mL
same,solubility,"NMP, organic solvent or mixture, thermodynamic from solid, NMP, read-out: solubility",50000 to 100000 µg/mL
same,solubility,"THF, organic solvent or mixture, thermodynamic from solid, THF, read-out: Approximate solubility",~50000 µg/mL
same,solubility,"THF, organic solvent or mixture, thermodynamic from solid, THF, read-out: solubility",50000 to 100000 µg/mL
same,solubility,"THF:water (98:2% v/v), organic solvent or mixture, thermodynamic from solid, THF:water (98:2% v/v), read-out: solubility",50000 to 100000 µg/mL
same,solubility,"acetone:water (90:10% v/v), 40 °C, organic solvent or mixture, thermodynamic from solid, Acetone:Water (90:10% v/v), read-out: Approximate Solubility",5680 µg/mL
same,solubility,"acetonitrile:water (75:25% v/v), 40 °C, organic solvent or mixture, thermodynamic from solid, Acetonitrile:Water (75:25% v/v), read-out: Approximate Solubility",1050 µg/mL
same,solubility,"anisole, organic solvent or mixture, thermodynamic from solid, anisole, read-out: solubility",25000 to 50000 µg/mL
same,solubility,"dichloromethane:methanol (50:50% v/v), organic solvent or mixture, thermodynamic from solid, Dichloromethane:Methanol (50:50% v/v), read-out: Approximate Solubility",50000 µg/mL
same,solubility,"dichloromethane:methanol (50:50% v/v), organic solvent or mixture, thermodynamic from solid, Dichloromethane:Methanol (50:50% v/v), read-out: Approximate solubility",~50000 µg/mL
same,solubility,"dichloromethane:methanol (75:25% v/v), organic solvent or mixture, thermodynamic from solid, Dichloromethane:Methanol (75:25% v/v), read-out: Approximate Solubility",100000 µg/mL
same,solubility,"diethyl ether, 40 °C, organic solvent or mixture, thermodynamic from solid, Diethyl ether, read-out: Approximate Solubility",2 µg/mL
same,solubility,"dimethylsulfoxide, organic solvent or mixture, thermodynamic from solid, Dimethylsulfoxide, read-out: Approximate Solubility",100000 µg/mL
same,solubility,"ethanol, 40 °C, organic solvent or mixture, thermodynamic from solid, Ethanol, read-out: Approximate Solubility",276 µg/mL
same,solubility,"ethanol:water (50:50% v/v), 40 °C, aqueous with cosolvent or surfactant or cyclodextrin, thermodynamic from solid, Ethanol:Water (50:50% v/v), read-out: Approximate Solubility",19.2 µg/mL
same,solubility,"ethyl acetate, 40 °C, organic solvent or mixture, thermodynamic from solid, Ethyl acetate, read-out: Approximate Solubility",444 µg/mL
same,solubility,"ethyl formate, 40 °C, organic solvent or mixture, thermodynamic from solid, Ethyl formate, read-out: Approximate Solubility",1010 µg/mL
same,solubility,"heptane, 40 °C, organic solvent or mixture, thermodynamic from solid, Heptane, read-out: Approximate Solubility",1.7 µg/mL
same,solubility,"isopropyl acetate, organic solvent or mixture, thermodynamic from solid, Isopropyl acetate, read-out: Approximate Solubility",174 µg/mL
same,solubility,"methanol, organic solvent or mixture, thermodynamic from solid, Methanol, read-out: Approximate Solubility",437 µg/mL
same,solubility,"methylisobutyl ketone, organic solvent or mixture, thermodynamic from solid, Methylisobutyl ketone, read-out: Approximate Solubility",530 µg/mL
same,solubility,"organic solvent or mixture, thermodynamic from solid, remaining 25 solvent systems tested, read-out: solubility",< 5000 µg/mL
same,XRPD,"1,4-Dioxane",A
same,XRPD,1-Butanol,P1
same,XRPD,1-Propanol,P1
same,XRPD,2-Butanone (MEK),P1
same,XRPD,2-Ethoxyethanol,P1
same,XRPD,3-Methyl-1-butanol,A
same,XRPD,Acetone,P1
same,XRPD,Acetonitrile:Water (75:25% v/v),A
same,XRPD,Butyl acetate,P1
same,XRPD,Dichloromethane,A
same,XRPD,Dichloromethane:Methanol (50:50% v/v),A
same,XRPD,Dichloromethane:Methanol (75:25% v/v),A
